These results are taken from patent publication US20180318199A1, “Pharmaceutical Composition Having Anti-Aging Properties against High-Glucose” (TAIWAN LEADER BIOTECH CORP., priority 2017, published 2018).

SMILES strings stand for the structures.

Holding throughout (type): cell-based, human
Assay [1] concerns HNDFs. The assay can be described thus: SA-β-gal senescence assay in HG-induced HNDFs. The settings on record: 72 h. The protocol: Next, the protective effects of antcins on HG-induced HNDF senescence are examined. In FIG. 2B, cells were incubated with ANA (10 μM), ANH (10 μM) and ANM (10 μM) in the presence of HG (30 mM) for 72 h. Cellular senescence is determined by SA-β-gal activity. […] After cells are co-incubated with HG and antcins (ANA, ANH and ANM) for 72 h, senescence is measured by SA-β-gal assay.
Therefore, in order to examine whether the ROS inhibitory effect may be extended to suppress HG-induced senescence, HG-induced senescenece eliminated by ANM is examined. In FIG. 4B, HNDFs are incubated with ANM (10 μM) or NAC (100 μM) in the presence or absence of HG (30 mM) for 72 h. Cellular senescence is determined by SA-β-gal assay. […] As is shown, cells are co-incubated with HG and ANM or NAC for 72 h.
Senescence-associated β-galactosidase (SA-β-gal) activity is determined in formaldehyde-fixed histochemical staining kit according to the manufacturer's instructions (Cell Signaling Technology, Danvers, Calif.). Briefly, cells are grown in 6-well plates at a density of 5×10^4 cells/well, and incubated with HG or test samples for 48 h (HUVECs) or 72 h (HNDFs). After incubation, cells are stained with SA-β-gal staining solution at pH 6.0 overnight and then the development of blue staining is observed and photographed under a bright-field microscope (Motic Electric Group, Xiamen, P.R. China).

Assay [2] concerns HUVECs. The assay can be described thus: Intracellular ROS (DCFH-DA assay) in HUVECs. The settings on record: ANM 10 μM + HG 30 mM, 48 h; HG alone 14.3-fold. The protocol:
The intracellular ROS level is quantified by utilizing DCFH-DA assay. […] However, treatment of HUVECs with ANM resulted reduced ROS levels (6.1-fold), compared with HUVECs in HG that are not treated with ANM. In addition, in FIG. 9G, western blot analysis is performed to determine the protein expression levels of HO-1 and NQO-1.

Assay [3] has as its system HO-1 and NQO-1. Briefly: Q-PCR of HO-1 and NQO-1 mRNA in HNDFs. Particulars: 12 h. The protocol:
Therefore, it is hypothesized that ANM may upregulate anti-oxidant genes, which may suppress HG-induced ROS generation in HNDFs. In FIG. 5B and FIG. 5C, to quantify the mRNA expression levels of HO-1 and NQO-1, HNDFs are incubated with ANM (10 μM) or NAC (100 μM) in the presence or absence of HG (30 mM) for 12 h. Total RNA is extracted and subjected to Q-PCR analysis. Relative mRNA levels are normalized with β-actin mRNA. […] In contrast, as compared with the NG treatment group, […] expression levels of HO-1 and NQO-1 are observed in the HG treatment group.
As shown in the figures, to confirm a hypothesis that ANM protects HNDFs from HG-induced oxidative stress, an Nrf2 gene knockdown system using Nrf2 siRNA is developed. In FIG. 6A, HNDFs are transfected with specific siRNA against Nrf2 or control siRNA. After transfection for 24 h, cells are incubated with ANM (10 μM) in the presence of HG for 12 h. Total RNA is extracted and subjected to Q-PCR analysis to determine HO-1 and NQO-1 mRNA expression levels. […] From the data, it can be concluded that Nrf2 plays a vital role in HO-1 and NQO-1 induction even at the basal level.
Total RNA is extracted from cultured HNDFs using Trizol Reagent (Thermo Fisher Scientific). Q-PCR analysis is performed using Applied Biosystems detection instruments and software. Forward and reverse primers (10 μM), and the working solution SYBR green, is used as a PCR master mix, under the following conditions: 96° C. for 3 minutes followed by 40 cycles at 96° C. for 1 minute, 50° C. for 30 seconds and 72° C. for 90 seconds. GAPDH is used as an internal standard to control for variability in amplification because of differences in starting mRNA concentrations. The copy number of each transcript is calculated as the relative copy number normalized by GAPDH copy number.

Assay [4] deals with p53 and FoxO1. The assay can be described thus: Western blot of p53 and FoxO1 acetylation in HUVECs. Particulars: ANM 10 μM + HG 30 mM. The protocol:
Please refer to FIG. 9A˜FIG. 9H, which are views showing HG-induced senescence prevented by ANM in human umbilical vein endothelial cells (HUVECs). As shown in the figures, to further delineate the protective effects of ANM on another cell system, experiments are designed to investigate the protective effect of ANM on HUVECs incubated in media containing either NG or HG alone or with ANM for 48 h. Cell viability is measured by MTT assay. […] Cell viability is determined by MTT assay. Percentage of viable cells are normalized with control cells (NG). […] In addition, in FIG. 9B, cellular senescence is determined by SA-β-gal activity assay. […] In addition, in FIG. 9C and FIG. 9D, total cell lysate is extracted and senescence-associated marker proteins including p16^INK4A, p21^CIP1 total and acetylated p53 and FoxO1 are measured by western blot analysis.
Cells are lysed by either RIPA lysis buffer or nuclear and cytoplasmic extraction reagents (Thermo Fisher Scientific). Protein concentrations are determined by Bio-Rad protein assay reagent (Bio-Rad Laboratories, Hercules, Calif.). […] The blots are detected using VL Chemi-Smart 3000 (Viogene Biotek, Sunnyvale, Calif.) with the enhanced chemiluminescence (ECL) western blotting reagent (Millipore, Billerica, Mass.).
(In western blotting, separated proteins are transferred to a membrane and probed.)

For the compound `C=C(CCC(C)C1CCC2C3=C(C(=O)C(O)C21C)C1(C)CCC(O)C(C)C1CC3)C(C)C(=O)O` (stereo not drawn) [ANM, antcin M], the SA-β-gal positive cells in assay [1] (10 μM compound + HG 30 mM, HG alone 9.59-fold (FIG. 2B)) came to 1.51 fold. In addition, in assay [1] (ANM 10 μM + HG), the “HG-induced senescence (SA-β-gal activity), control siRNA cells (SIRT-1 experiment)” value was “significantly inhibits”; the “HG-induced senescence (SA-β-gal), control siRNA cells (Nrf2 experiment)” value is given as “significantly inhibits”; the “HG-induced senescence (SA-β-gal), siNrf2-transfected cells” value is listed as “significantly prevents”. Moreover, the SA-β-gal positive cells in assay [1] (ANM 10 μM or NAC 100 μM + HG 30 mM, HG alone 5.72-fold (FIG. 4B)) was 1.89 fold. For the same compound, the “SA-β-gal activity, SIRT-1 siRNA transfected cells” value in assay [1] (ANM 10 μM or RES + HG) was “remains partially elevated”. Moreover, the “intracellular ROS levels in HUVECs” value in assay [2] was found to be 6.1 fold. Further, the “HO-1 and NQO-1 mRNA levels in HG treated groups” value in assay [3] (ANM 10 μM + HG 30 mM) was “further increased”. For the same compound, in assay [3] (ANM 10 μM + HG), the “HO-1 and NQO-1 expression, siNrf2-transfected cells” value is “decrease”. In assay [3] (ANM 10 μM + HG, scrambled siRNA), the “HO-1 and NQO-1 mRNA levels, control siRNA cells” value is on record as “remarkable increase”. Further, in assay [3] (ANM 10 μM, no HG), the “HO-1 and NQO-1 mRNA levels, compound alone” value is reported as “significantly increases”. For the same compound, the “HG-induced p53 and FoxO1 acetylation in HUVECs” value in assay [4] was “significantly blocks”.
